Several values for one entry are separate records, joined by “and”; a condition that tells them apart may be missing. Equal entries are not always repeated. Where two headings read alike, the source gives them in different places.
Assays:
hERG = hERG (Homo sapiens, UniProt Q12809)
adult male Wistar rats = experiment: SCORE-2000 sleep-wakefulness, locomotor activity and body temperature monitoring; type: in vivo, rat
M1 muscarinic receptor = target: T1, M1 muscarinic receptor (Homo sapiens, UniProt P11229); experiment: Muscarinic M1 binding assay ([3H]-scopolamine, N-methyl chloride); parameters: purchased PerkinElmer, Inc., Wellesley, Mass; host or cells: CHO cells; details: read-out: Ki M1
T1 sequence (P11229 1-460): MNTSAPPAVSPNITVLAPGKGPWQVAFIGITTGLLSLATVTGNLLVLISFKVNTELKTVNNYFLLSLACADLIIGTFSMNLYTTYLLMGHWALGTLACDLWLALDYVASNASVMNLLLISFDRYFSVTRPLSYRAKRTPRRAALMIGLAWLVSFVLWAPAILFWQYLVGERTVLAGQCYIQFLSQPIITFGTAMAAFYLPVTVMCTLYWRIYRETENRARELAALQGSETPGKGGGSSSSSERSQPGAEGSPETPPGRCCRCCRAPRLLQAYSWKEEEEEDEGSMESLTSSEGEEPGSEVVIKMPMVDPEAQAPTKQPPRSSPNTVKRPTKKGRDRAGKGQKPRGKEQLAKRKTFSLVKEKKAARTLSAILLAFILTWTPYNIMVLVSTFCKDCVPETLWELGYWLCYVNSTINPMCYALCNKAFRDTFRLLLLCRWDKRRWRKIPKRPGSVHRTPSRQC

M3 muscarinic receptor = M3 muscarinic receptor (Homo sapiens, UniProt P20309); experiment: Muscarinic M3 binding assay; parameters: purchased PerkinElmer, Inc., Wellesley, Mass; host or cells: CHO cells; details: read-out: Ki M3
H1 histamine receptor = target: T2, H1 histamine receptor (Bos taurus, UniProt P30546); experiment: Histamine H1 competitive binding assay ([3H]pyrilamine); parameters: species or system bovine; details: read-out: Ki H1
T2 construct: the receptors were obtained from bovine cerebellar membrane tissue; from tissue; host or cells: bovine cerebellar membranes

M2 muscarinic receptor = target: T3, M2 muscarinic receptor (Homo sapiens, UniProt P08172); experiment: Muscarinic M2 binding assay; parameters: purchased PerkinElmer, Inc., Wellesley, Mass; host or cells: CHO cells; details: read-out: Ki M2
T3 sequence (P08172 1-466): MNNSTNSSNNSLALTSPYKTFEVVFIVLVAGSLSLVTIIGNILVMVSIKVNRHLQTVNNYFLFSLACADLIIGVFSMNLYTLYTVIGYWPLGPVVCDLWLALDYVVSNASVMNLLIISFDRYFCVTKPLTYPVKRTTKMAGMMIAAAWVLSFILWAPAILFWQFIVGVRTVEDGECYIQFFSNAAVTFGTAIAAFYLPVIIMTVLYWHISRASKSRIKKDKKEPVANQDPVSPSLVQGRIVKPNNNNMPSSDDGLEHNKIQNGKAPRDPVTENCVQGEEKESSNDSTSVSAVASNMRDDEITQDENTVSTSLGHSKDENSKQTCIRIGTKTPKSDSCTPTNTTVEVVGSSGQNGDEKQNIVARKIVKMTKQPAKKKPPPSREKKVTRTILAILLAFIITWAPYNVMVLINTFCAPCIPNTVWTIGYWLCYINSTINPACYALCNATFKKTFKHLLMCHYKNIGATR

male Wistar rats = type: in vivo
Method: The Irwin screen can provide useful information on potential side effects of compounds on general physiological and behavioural functions. The screen was conducted by administering the test compounds orally in 0.25% aqueous methylcellulose using male Wistar rats, a frequently used species in such studies and for which background data are readily available.
The Irwin screen tests for numerous parameters in animals that have been administered the test compound. For example, the screen can include: in-cage effects, e.g., dispersion, respiratory rate, locomotor activity, restlessness, fighting, alertness, apathy, and exophthalmus; in-arena effects, e.g., transfer arousal, spatial locomotion, ptosis, startle, tail elevation, piloerection, touch escape, positional passivity, catalepsy, tighting reflex, visual placing, grip strength, pinna, corneal, pain response, and wire manoeuvre; parameters observed in handling, e.g., cyanosis, cutaneous blood flow, hypothermia, body tone, pupil size, light-pupil response, lacrimation, grooming, red staining, salivation, and provoked biting; general scores e.g., fearfulness, irritability, abnormal gait, abnormal body carriage, tremors, twitches, convulsions, bizarre behaviour, writhing, vocalisation, diarrhoea, number of defaecations, number of urinations, moribund, lethality, and abnormalities detected. Further details can be found in Irwin, S; Comprehensive observational assessment: I a. A systematic, quantitative procedure for assessing the behavioural and physiological state of the mouse.
Irwin screening of the disclosed sleep-inducing agents was performed by Covance (Princeton, N.J.) according to Irwin, above; Covance Standard Operating Procedure (current revision of SOP PHARM 8.10); relevant regulatory authority guidelines ICH (International Committee for Harmonization) Guideline (Topic S7A; CPMP/ICH/539/00) on Safety Pharmacology Studies for human pharmaceuticals (November 2000); and all procedures carried out on live animals were subject to the provisions of United Kingdom Law, in particular the Animals (Scientific Procedures) Act, 1986. which obliges all UK laboratories to maintain a local ethical review process to ensure that all animal use in the establishment is carefully considered and justified; that proper account is taken of all possibilities for reduction, refinement or replacement and that high standards of accommodation and care are achieved.
All test compound formulations were prepared on the day of dosing by Covance Harrogate Dispensary. The test compounds were formulated in 0.25% aqueous methylcellulose at the highest concentration required. Lower doses were obtained by serial dilution of the highest concentration using 0.25% aqueous methylcellulose. Dose levels are expressed in terms of the amount of test compound administered without regard to purity or active content. All formulations were stored at room temperature (nominally 10 to 30° C.) in sealed containers and protected from light.
An adequate number of male Wistar (Crl:WI(Glx/BRL/Han) BR:WH) rats were obtained from Charles River Ltd. (Margate, Kent, United Kingdom). The rats were approximately 5 weeks of age and weighed between 150 and 170 g on arrival. The animals were housed in groups of no more than six in polypropylene cages (33×15×13 cm) or (45×28×20 cm) with solid floors and Grade 10 woodflakes (Datesand Ltd., Cheshire, United Kingdom) as bedding. The cages were cleaned and dried before use. Aspen chew blocks were placed within the cages as a form of environmental enrichment. Routinely, holding rooms were maintained within acceptable limits for temperature and relative humidity (nominally 19 to 25° C. and 40% to 70%, respectively). These rooms were illuminated by fluorescent light for 12 hours out of each 24 hour cycle and designed to receive at least 15 fresh air changes per hour. […]

Chain of hERG (Q12809 whole entry): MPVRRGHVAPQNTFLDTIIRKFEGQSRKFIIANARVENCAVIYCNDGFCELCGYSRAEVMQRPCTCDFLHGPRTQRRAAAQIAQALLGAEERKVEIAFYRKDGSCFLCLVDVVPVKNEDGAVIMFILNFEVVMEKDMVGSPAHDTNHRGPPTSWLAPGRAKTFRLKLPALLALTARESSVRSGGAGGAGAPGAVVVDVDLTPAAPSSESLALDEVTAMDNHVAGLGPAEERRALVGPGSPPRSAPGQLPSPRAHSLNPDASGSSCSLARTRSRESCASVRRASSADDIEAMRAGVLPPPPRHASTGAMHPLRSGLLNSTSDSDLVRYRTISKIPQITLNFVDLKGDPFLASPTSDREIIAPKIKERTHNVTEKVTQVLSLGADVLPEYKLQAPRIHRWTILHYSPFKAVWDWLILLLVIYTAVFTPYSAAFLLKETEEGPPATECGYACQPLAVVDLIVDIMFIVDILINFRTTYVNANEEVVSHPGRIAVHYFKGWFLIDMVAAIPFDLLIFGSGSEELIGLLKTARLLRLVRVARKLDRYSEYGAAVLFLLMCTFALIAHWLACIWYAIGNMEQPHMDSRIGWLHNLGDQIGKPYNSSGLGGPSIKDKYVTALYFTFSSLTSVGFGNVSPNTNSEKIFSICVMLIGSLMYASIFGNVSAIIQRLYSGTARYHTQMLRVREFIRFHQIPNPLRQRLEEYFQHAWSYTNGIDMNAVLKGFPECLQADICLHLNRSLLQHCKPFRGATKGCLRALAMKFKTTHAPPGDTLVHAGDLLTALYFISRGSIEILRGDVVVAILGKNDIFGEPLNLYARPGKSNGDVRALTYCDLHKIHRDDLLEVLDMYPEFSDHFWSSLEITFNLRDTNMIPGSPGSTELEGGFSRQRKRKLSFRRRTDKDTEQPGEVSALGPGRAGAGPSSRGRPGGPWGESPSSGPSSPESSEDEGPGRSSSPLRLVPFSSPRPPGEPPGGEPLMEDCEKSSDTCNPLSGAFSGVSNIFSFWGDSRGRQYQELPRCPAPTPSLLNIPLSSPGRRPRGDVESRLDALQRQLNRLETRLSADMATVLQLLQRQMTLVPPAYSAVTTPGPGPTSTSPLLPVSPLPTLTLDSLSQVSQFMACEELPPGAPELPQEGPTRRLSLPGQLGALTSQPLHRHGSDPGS
Chain of M3 muscarinic receptor (P20309 whole entry): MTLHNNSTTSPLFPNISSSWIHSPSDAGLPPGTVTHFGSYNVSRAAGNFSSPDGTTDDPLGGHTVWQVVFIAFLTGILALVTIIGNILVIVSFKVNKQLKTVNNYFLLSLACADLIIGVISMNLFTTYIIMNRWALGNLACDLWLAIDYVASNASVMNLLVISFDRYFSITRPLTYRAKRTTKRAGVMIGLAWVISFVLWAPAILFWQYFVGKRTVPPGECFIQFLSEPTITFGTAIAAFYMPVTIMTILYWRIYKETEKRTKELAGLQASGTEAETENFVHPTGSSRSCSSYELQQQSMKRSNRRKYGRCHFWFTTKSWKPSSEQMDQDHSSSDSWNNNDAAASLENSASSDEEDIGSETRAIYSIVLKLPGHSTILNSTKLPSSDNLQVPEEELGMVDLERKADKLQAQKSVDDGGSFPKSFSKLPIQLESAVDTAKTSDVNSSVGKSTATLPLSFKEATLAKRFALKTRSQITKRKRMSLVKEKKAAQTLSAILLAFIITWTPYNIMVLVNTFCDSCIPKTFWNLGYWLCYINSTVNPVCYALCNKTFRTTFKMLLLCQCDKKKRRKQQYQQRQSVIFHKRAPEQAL
T2 sequence (P30546 whole entry): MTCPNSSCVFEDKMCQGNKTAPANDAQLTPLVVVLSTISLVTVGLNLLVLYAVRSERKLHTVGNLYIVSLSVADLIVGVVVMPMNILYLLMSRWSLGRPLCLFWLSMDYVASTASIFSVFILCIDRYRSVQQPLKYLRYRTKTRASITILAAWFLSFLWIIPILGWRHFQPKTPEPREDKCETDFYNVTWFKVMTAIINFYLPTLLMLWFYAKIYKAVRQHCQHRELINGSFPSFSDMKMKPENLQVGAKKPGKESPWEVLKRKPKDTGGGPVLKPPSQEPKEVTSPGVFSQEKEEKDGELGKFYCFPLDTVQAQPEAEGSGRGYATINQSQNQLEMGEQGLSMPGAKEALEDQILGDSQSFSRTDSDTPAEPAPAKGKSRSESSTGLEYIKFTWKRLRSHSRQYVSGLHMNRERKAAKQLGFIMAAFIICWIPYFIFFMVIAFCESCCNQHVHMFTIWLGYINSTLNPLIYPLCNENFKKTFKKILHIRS

| Structure (SMILES) | hERG at micromolar (% blocking of the hERG channel) (hERG; human, 10 µM, pH 7.4) [% @ 10] | LUSB (adult male Wistar rats; dose 3 mg/kg oral at CT-18) [min] | NREM (adult male Wistar rats; dose 3 mg/kg oral at CT-18) [min] | LUSB (adult male Wistar rats; dose 10 mg/kg oral at CT-18) [min] | NREM (adult male Wistar rats; dose 10 mg/kg oral at CT-18) [min] | LUSB (adult male Wistar rats; dose 30 mg/kg oral at CT-18) [min] | NREM (adult male Wistar rats; dose 30 mg/kg oral at CT-18) [min] | Ki (M1 muscarinic receptor) [nM] | Ki (M3 muscarinic receptor) [nM] | Ki (H1 histamine receptor) [nM] | Ki (M2 muscarinic receptor) | Irwin at mg/kg dose (male Wistar rats; rat, in vivo) | also measured |
| --- | --- | --- | --- | --- | --- | --- | --- | --- | --- | --- | --- | --- | --- |
| CC(C)(CCN1CCC(=C2c3ccc(F)cc3COc3ccccc32)CC1)C(=O)O [Compound 61a] | 12.6 | 3.1 | 13.9 | 9.7 | 24 | 10.1 | 45.8 | > 10000 | > 10000 | 182 | > 10000 nM |  |  |
| O=C(O)C1(CCN2CCC(=C3c4ccc(F)cc4COc4ccccc43)CC2)CC1 [Compound 61b] | 85.9 | 3.6 | 11.3 | 14.6 | 34.8 | 9.7 | 57.4 | 569 | > 10000 | 12.2 | 3090 nM |  |  |
| COc1ccc2c(c1)COc1ccccc1C2=C1CCN(CCC(C)(C)C(=O)O)CC1 [Compound 62a] | 13.6 |  |  | 7.4 | 23.2 | 9.1 | 25.2 | > 10000 | > 10000 | 128 | > 10000 nM |  |  |
| O=C(O)C1(CN2CCC(=C3c4ccccc4COc4ccccc43)CC2)CC1 [Compound 69b] | 12.6 | 5.9 | 14.9 | 6.2 | 44.3 | 14 | 41.6 | > 10000 | > 10000 | 54.9 | > 10000 nM | clean | LUSB (adult male Wistar rats; dose 15 mg/kg oral at CT-18): 14.4 min; NREM (adult male Wistar rats; dose 15 mg/kg oral at CT-18): 43.4 min; LUSB (adult male Wistar rats; dose 20 mg/kg oral at CT-18): 11.6 min; NREM (adult male Wistar rats; dose 20 mg/kg oral at CT-18): 39.4 min |
| CC(C)(CCN1CCC(=C2c3ccccc3COc3ccccc32)CC1)C(=O)O [Compound 70a] |  |  |  | 3.7 | 13.2 | 6 | 33.6 | 811 |  | 36.8 | 3310 nM and 1360 nM | clean | hERG at micromolar (% blocking of the hERG channel) (hERG; human, 1 µM, pH 7.4): 5.1% @ 1; LUSB (adult male Wistar rats; dose 45 mg/kg oral at CT-18): 12.1 min; NREM (adult male Wistar rats; dose 45 mg/kg oral at CT-18): 29.3 min |
| O=C(O)C1(CCN2CCC(=C3c4ccccc4COc4ccccc43)CC2)CC1 [Compound 70b] |  |  |  | 8.3 |  |  |  |  |  |  |  |  | hERG at micromolar (% blocking of the hERG channel) (hERG; concentration not given): 50.2%; Irwin at mg/kg dose (male Wistar rats; 10 mg/kg oral): clean; Irwin at mg/kg dose (male Wistar rats; 30 mg/kg oral): clean; Irwin at mg/kg dose (male Wistar rats; 100 mg/kg oral): some side effects |

From patent publication US7326721B2 (Hypnion, Inc., priority 2003, dated 2008)
